In PubChem BioAssay AID652274 (Broad Institute, 2013) one finds platelet aggregation inhibition after wash (%), active compounds read high data, which are given here for 1 molecule.

The experiment concerns washed human platelets, SFLLRN aggregation after wash, transmittance. The experiment in a line: washed human platelet aggregation block persisting post-wash – cell-based, aggregometer, SFLLRN stimulus, single point, dry powder, mechanism study for PDI inhibitor project, late-stage follow-up (AID 652274). To be noted: at 30 µM.

Molecules are shown by their SMILES. Inconclusive results are not listed.

Turning to `C/C1=C\C[C@H](OC(=O)c2ccc(O)cc2)/C(C)=C/[C@@H](O)C(C)(C)CCC1`, the platelet aggregation inhibition after wash (%), active compounds read high is 100%.
